Measured values from patent US11840686B2, “Modulation of prekallikrein (PKK) expression” (Ionis Pharmaceuticals, Inc., priority 2013, dated 2023).
Strand notation (5' to 3'): a small letter for the sugar, then the base; units joined by * are phosphorothioate-linked, units joined directly phosphodiester-linked; [ ] holds rarer units or linkages, { } end groups; capitals alone tell only the bases. e = 2'-O-(2-methoxyethyl) (MOE); [5mC] = 5-methylcytosine; d = 2'-deoxy (DNA)

Test system: human PKK mRNA
Assay: Antisense inhibition of human PKK mRNA in HepaRG cells, 5,000 nM (Example 2)
Assay type: cell-based
Summary of the method: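 Chimeric MOE gapmers with full phosphorothioate backbones were tested once at 5,000 nM in electroporated HepaRG cells. After about 24 hours, quantitative PCR measured PKK mRNA relative to untreated control cells.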

[1] = HepaRG cells, 5,000 nM antisense oligonucleotide, 5-10-5 gapmers, Table 17
[2] = HepaRG cells, 5,000 nM antisense oligonucleotide, 5-10-5 gapmers, Table 16
[3] = HepaRG cells, electroporation with 5,000 nM antisense oligonucleotide, approximately 24 hours, PKK mRNA by RT-PCR (RTS3454), relative to untreated control cells, Table 5 experiment
[4] = human PKK mRNA, HepaRG cells, 5-10-5 motif oligonucleotides targeting SEQ ID NO: 1 and 10
[5] = HepaRG cells, electroporation, 5,000 nM antisense oligonucleotide, approx. 24 hours, primer probe set RTS3454, relative to untreated control cells, Table 12
[6] = HepaRG cells, electroporation with 5,000 nM antisense oligonucleotide, approximately 24 hours, PKK mRNA by RT-PCR (RTS3454), relative to untreated control cells, Table 6 experiment
[7] = human PKK mRNA, HepaRG cells, 5,000 nM antisense oligonucleotide, Table 18
[8] = Table 7, HepaRG cells, electroporation with 5,000 nM antisense oligonucleotide, approx. 24 hours, PKK mRNA by RT-PCR (RTS3454), relative to untreated control cells
[9] = Table 13, human PKK mRNA in HepaRG cells, 5-10-5 gapmers
[10] = Table 8, HepaRG cells, electroporation with 5,000 nM antisense oligonucleotide, approx. 24 hours, PKK mRNA by RT-PCR (RTS3454), relative to untreated control cells

## 546999 (eG*e[5mC]*eA*eG*e[5mC]*dT*d[5mC]*dA*d[5mC]*dA*d[5mC]*d[5mC]*d[5mC]*dA*dA*eA*eA*eA*eG*e[5mC]; antisense) [compound 546999]
[1]
  % inhibition: 29%

## 547714 (antisense e[5mC]*eT*eG*eT*e[5mC]*dT*dA*dA*d[5mC]*dT*dG*dG*d[5mC]*d[5mC]*dT*eG*eG*e[5mC]*eT*eG) [compound 547714]
[2]
  % inhibition: 19%

## 546156 (eG*eA*eA*eT*eG*dT*dG*d[5mC]*dA*d[5mC]*d[5mC]*dT*d[5mC]*dA*dT*e[5mC]*eT*eG*eG*e[5mC]; antisense) [compound 546156]
[3]
  % inhibition: 81%

## 547665 (eT*eG*eT*eA*e[5mC]*d[5mC]*dT*dA*dT*dA*dA*d[5mC]*dT*dA*dT*eA*eA*e[5mC]*eA*eG; antisense) [compound 547665]
[4]
  % inhibition: 10%

## 547013 (eT*eG*eA*eG*eA*dT*dT*dG*dG*dT*dG*dG*dT*dG*dG*eG*eT*eG*eG*e[5mC]; antisense) [compound 547013]
[1]
  % inhibition: 0%

## 547540 (antisense eT*eT*eG*eT*eG*dT*dG*dG*d[5mC]*d[5mC]*d[5mC]*dT*d[5mC]*dT*dT*eA*eA*eG*eT*e[5mC]) [compound 547540]
[5]
  % inhibition: 44%

## 547029 (eT*e[5mC]*eT*eT*e[5mC]*dT*dA*dG*dG*dG*d[5mC]*d[5mC]*dA*d[5mC]*dA*e[5mC]*e[5mC]*eT*e[5mC]*eT; antisense) [compound 547029]
[1]
  % inhibition: 50%

## 546453 (e[5mC]*eT*e[5mC]*eA*eT*dT*dG*dT*dT*dG*dT*dG*dT*dG*dG*e[5mC]*e[5mC]*e[5mC]*eT*e[5mC]; antisense) [compound 546453]
[5]
  % inhibition: 82%

## 547322 (antisense e[5mC]*eT*eT*e[5mC]*eA*dA*dG*dG*dA*dA*dT*dG*dT*d[5mC]*d[5mC]*eA*eG*eA*eA*eA) [compound 547322]
[6]
  % inhibition: 65%

## 547501 (antisense eA*eT*eT*eG*e[5mC]*d[5mC]*dT*dA*dG*dA*d[5mC]*dT*d[5mC]*dT*dG*eG*eA*e[5mC]*eT*eG) [compound 547501]
HepaRG cells, electroporation, 5,000 nM antisense oligonucleotide, approx. 24 hours, primer probe set RTS3454, relative to untreated control cells, Table 11
  % inhibition: 55%

## 548762 (antisense eT*e[5mC]*eT*eA*dA*d[5mC]*dA*dG*dT*dA*dT*d[5mC]*dA*e[5mC]*eT*eG*eT) [compound 548762]
[7]
  % inhibition: 16%

## 546915 (eT*e[5mC]*eA*e[5mC]*eT*dG*dT*d[5mC]*d[5mC]*dT*dA*dT*dA*dA*d[5mC]*eT*eA*eT*eA*eT; antisense) [compound 546915]
[2]
  % inhibition: 39%

## 547697 (antisense eT*e[5mC]*eA*e[5mC]*eT*dG*dT*d[5mC]*d[5mC]*dT*dA*dT*dA*dA*d[5mC]*eT*eA*eT*eT*eA) [compound 547697]
[2]
  % inhibition: 63%

## 547314 (antisense eG*e[5mC]*eA*e[5mC]*e[5mC]*dT*dG*dT*dT*d[5mC]*dG*dA*dT*dG*dT*eA*e[5mC]*eT*eT*eT) [compound 547314]
[6]
  % inhibition: 73%

## 548745 (DNA eA*eT*e[5mC]*eA*d[5mC]*dT*dG*dT*dA*d[5mC]*dT*dA*dG*eT*eT*eT*e[5mC]; antisense) [compound 548745]
[7]
  % inhibition: 71%

## 547403 (eA*eT*eT*eT*eT*dA*dG*dA*dA*dT*dG*dG*d[5mC]*dA*dG*eG*eG*eT*eT*e[5mC]; antisense) [compound 547403]
[8]
  % inhibition: 10%

## 546850 (eT*eA*eT*e[5mC]*eA*d[5mC]*dT*dG*dT*d[5mC]*d[5mC]*dT*dA*dT*dA*eT*e[5mC]*eA*e[5mC]*eT; antisense) [compound 546850]
Human PKK mRNA in HepaRG cells, 5-10-5 gapmers, Table 14
  % inhibition: 80%

## 547768 (antisense eT*eT*eG*e[5mC]*e[5mC]*d[5mC]*dT*d[5mC]*dA*d[5mC]*dA*d[5mC]*dA*dT*dT*e[5mC]*eG*eA*eA*eT) [compound 547768]
[1]
  % inhibition: 0%

## 547476 (antisense e[5mC]*eA*eT*eT*eT*dG*dT*dT*dA*d[5mC]*d[5mC]*dA*dA*dA*dG*eG*eA*eA*eT*eA) [compound 547476]
Table 9 experiment, HepaRG cells, 20,000 cells per well, electroporation with 5,000 nM antisense oligonucleotide, approx. 24 hours, PKK mRNA by RT-PCR (RTS3454), relative to untreated control cells
  % inhibition: 75%
Table 10 experiment, HepaRG cells, 20,000 cells per well, electroporation with 5,000 nM antisense oligonucleotide, approx. 24 hours, PKK mRNA by RT-PCR (RTS3454), relative to untreated control cells
  % inhibition: 71%

## 546838 (e[5mC]*eT*eA*eT*eA*dA*d[5mC]*dT*d[5mC]*dT*dA*dA*d[5mC]*dA*dG*eT*eA*eT*e[5mC]*eA; antisense) [compound 546838]
[9]
  % inhibition: 43%

## 546765 (eG*eT*eG*eT*e[5mC]*d[5mC]*dA*dG*dA*dA*dT*dA*d[5mC]*dT*dG*e[5mC]*e[5mC]*e[5mC]*e[5mC]*eA; antisense) [compound 546765]
[9]
  % inhibition: 82%

## 547548 (antisense eT*eG*e[5mC]*eA*eT*dA*d[5mC]*dT*d[5mC]*dG*d[5mC]*d[5mC]*dT*dT*dT*eG*eT*eG*eA*eT) [compound 547548]
[5]
  % inhibition: 61%

## 547301 (antisense eT*e[5mC]*eA*eT*eT*dG*dA*dT*dT*dG*dA*dA*d[5mC]*dT*dT*eG*e[5mC]*eT*eG*eG) [compound 547301]
[3]
  % inhibition: 80%

## 547655 (eA*eA*eT*eA*eT*d[5mC]*dA*d[5mC]*dT*dG*dT*d[5mC]*d[5mC]*dT*dA*eT*eA*eA*e[5mC]*eT; antisense) [compound 547655]
[4]
  % inhibition: 37%

## 547420 (e[5mC]*e[5mC]*eA*eT*eA*dG*dA*dT*dA*dA*dT*d[5mC]*dT*dT*dA*eA*eG*eA*eA*eA; antisense) [compound 547420]
[10]
  % inhibition: 8%

## 546795 (eG*eT*e[5mC]*eT*e[5mC]*dG*dA*dT*dG*dG*d[5mC]*dA*dA*dG*d[5mC]*eT*eG*eT*eA*e[5mC]; antisense) [compound 546795]
[9]
  % inhibition: 72%

## 547730 (eG*eA*eT*eT*eG*dG*dT*dG*dG*dT*dG*dG*dG*dA*dT*eT*eG*eG*eT*eG; antisense) [compound 547730]
[1]
  % inhibition: 60%

## 547015 (eG*eG*eT*eG*eG*dT*dG*dG*dG*dA*dT*dT*dG*dG*dT*eG*e[5mC]*eT*eG*eA; antisense) [compound 547015]
[1]
  % inhibition: 55%

## 546151 (eG*eG*eA*eA*eG*d[5mC]*dT*dA*d[5mC]*dA*dT*d[5mC]*d[5mC]*d[5mC]*d[5mC]*eA*e[5mC]*e[5mC]*eT*e[5mC]; antisense) [compound 546151]
[3]
  % inhibition: 76%

## 547577 (e[5mC]*eT*eA*eA*e[5mC]*dA*dG*dT*dA*dT*d[5mC]*dA*d[5mC]*dT*dG*eT*eA*e[5mC]*eT*eA; antisense) [compound 547577]
[9]
  % inhibition: 79%

## 547664 (eG*eT*eA*e[5mC]*e[5mC]*dT*dA*dT*dA*dA*d[5mC]*dT*dA*dT*dA*eA*e[5mC]*eA*eG*eT; antisense) [compound 547664]
[4]
  % inhibition: 2%

## 547659 (eA*e[5mC]*eT*eA*eT*dA*dA*d[5mC]*dA*dG*dT*dA*dT*d[5mC]*dA*e[5mC]*e[5mC]*eG*eT*eA; antisense) [compound 547659]
[4]
  % inhibition: 80%

## 547658 (e[5mC]*eG*eT*eA*e[5mC]*dT*dA*dG*dT*dT*dT*d[5mC]*d[5mC]*dT*dA*eT*eA*eA*e[5mC]*eT; antisense) [compound 547658]
[4]
  % inhibition: 68%

## 547395 (eA*eA*eG*eT*eT*d[5mC]*dT*dT*dT*dT*dG*d[5mC]*dA*dG*dG*eT*eT*eA*eA*eA; antisense) [compound 547395]
[8]
  % inhibition: 15%

## 547443 (antisense e[5mC]*e[5mC]*eA*e[5mC]*eT*dG*dG*dT*dG*dT*d[5mC]*d[5mC]*dT*dA*dT*eG*eA*eG*eT*eG) [compound 547443]
[10]
  % inhibition: 70%

## 548737 (DNA eA*e[5mC]*eT*eA*dG*dT*dT*dT*d[5mC]*d[5mC]*dT*dA*dT*eA*eA*e[5mC]*eT; antisense) [compound 548737]
[7]
  % inhibition: 11%
